{"source": "patent US7517911B2", "about": "“3,4,5-trimethoxy phenyl-based ester compound and preparation method thereof and whitening cosmetic composition containing the same” (Amorepacific Corporation, priority 2001, dated 2009)", "key": {"Mel-Ab cells": {"tested_on": "Mel-Ab cells", "assay": "Melanin-inhibiting effect in the melanocytes (Dooley method)", "assay_type": "cell-based, C57BL/6", "conditions": "10 ppm in culture medium, absorbance at 400 nm, compared with cells cultured without compound"}, "human skin [1]": {"tested_on": "human skin", "assay": "Whitening effect on the human skin (UVB-induced pigmentation, Chromameter)", "assay_type": "in vivo", "conditions": "1% diluted solution (1,3-butyleneglycol:ethanol=7:3), applied for 10 weeks after UVB, 12 male volunteers", "text": "The brachia of twelve (12) healthy volunteers (males) were attached with opaque tape having 1.5 cm diameter holes, and then irradiated with UVB (ultraviolet rays B) in 1.5˜2 times the intensity of the minimum amount to form erythema for each volunteer, to induce pigmentation. After irradiating the UVB, 1% diluted solutions of the ester compounds of Examples 1˜6 (solvent was 1,3-butyleneglycol:ethanol=7:3) were applied on the above treated brachia for ten (10) weeks (the above 1% diluted solution was not applied on one brachium), and the colors of the skins thereof were measured by Chromameter CR2002 (manufactured by Minolta; Japan) per every one week. The difference of “L”, that is, “Δ L”, the amount of the increase of brightness of skin compared with those not applied with diluted solution, was measured. For reference, measurements for the cases that 3% kojic acid and vehicle (solvent) were applied were performed."}, "human skin [2]": {"tested_on": "human skin", "assay": "Test for application to human skin (patch test, CTFA Guideline)", "assay_type": "in vivo", "conditions": "for The number of volunteers having reaction, mark +: + = Intense erythema; for The number of volunteers having reaction, mark + / The number of volunteers having reaction, mark ++ / The number of volunteers having reaction, mark +++ / The number of volunteers having reaction, mark ± / The number of volunteers having reaction, mark −: 1% in patch base, n = 30; for The number of volunteers having reaction, mark ++: ++ = Intense erythema with edema; for The number of volunteers having reaction, mark +++: +++ = Intense erythema with edema &vesicle; for The number of volunteers having reaction, mark ±: ± = Mild erythema; for The number of volunteers having reaction, mark −: − = No visible reactions", "method": "Each of the ester compounds of Examples 1˜6 were dissolved in a patch base shown in Table 8 to be 1% concentration respectively, to prepare test samples. 20 μl of each test sample was dropped in a Finn Chamber to make a patch, and the patch was attached to antebrachial skin (test region) and fixed with micro tape. The patch was attached for 24 hours, and after removing the patch, the test region was checked with marking pen, and then the region was observed after 1 and 24 hours."}, "guinea pig skin": {"tested_on": "guinea pig skin", "assay": "Test for radiation toxicity (UVA)", "assay_type": "in vivo", "method": "The hairs on the backs of ten (10) guinea pigs were removed. After fixing the pigs, the back was divided into six (6) areas each having 2.0 cm×2.0 cm area, three (3) areas on the left side and three (3) on the right side. Right side areas were control areas prevented from being radiated, and left side areas were radiation areas. 1% (w/v) diluted solutions of ester compounds of Examples 1˜6 were applied thereto with an equal amount of 50 μl respectively, while using vehicle (1,3-butyleneglycol:ethanol=7:3) as a negative control, and using 0.1% 8-MOP(methoxypsoralene) as a positive control. After 30 minutes later, left sides of the back of the pig was shielded from light by aluminum foil, and UVA(320˜380 nm) was radiated from 10 cm distant with an final energy of 15J/cm^2 by using ultraviolet radiation device (waldmann). The skin of the guinea pig was observed after 24, 48 and 72 hours later. The irritation was graded as shown in table 5 with 0˜4 grades according to the intensity of the erythema and edema, and the sum was calculated. In the evaluation, the maximum value of the measurement that performed after 24, 48 and 72 hours later was chosen, and then the Irritation Index of an animal skin was calculated according to mathematical formula 1, and finally, the Radiation Toxicity Index was calculated according to mathematical Formula 2. Irritation Index of an animal skin=(Σ maximum value of erythema index+Σ maximum value of edema index)/number of animals [Mathematical Formula 1] Radiation Toxicity Index=(Irritation Index of an animal skin in an area of UV radiation)−(Irritation Index of an animal skin in an area UV non-radiation) [Mathematical Formula 2]"}, "rabbit skin": {"tested_on": "rabbit skin", "assay": "Test for skin irritation on animals (Draize P.I.I.)", "assay_type": "in vivo, rabbits", "conditions": "1% diluted solution, 0.5 ml", "method": "The hairs on the backs of six (6) healthy male rabbits were removed. After making areas of 2.5 cm×2.5 cm on the left and right sides of the back of each rabbit, nothing was applied on the left area of the back as control area, and 1% diluted solutions of the ester compounds of Examples 1˜6 (solvent was 1,3-butyleneglycol:ethanol=7:3) were applied on the right area of the back of the rabbits with an amount of 0.5 ml, one compound for each rabbit respectively. Irritations such as erythema, rash or edema were measured 24 hours and 72 hours after the application. In addition, the degree of irritation was determined according to the conventional, “P.I.I.” (Primary Irritation Index) of Draize, and the results are shown in Table 6."}}, "data": [{"compound": "COc1cc(/C=C/C(=O)Oc2cc(C(C)C)ccc2C)cc(OC)c1OC", "note": "[Example 4, 2-methyl-5-(methylethyl)phenyl(2E)-3-(3,4,5-trimethoxyphenyl)-2-propanoate]", "values": [{"measurement": "Melanin generation ratio (%)", "setting": "Mel-Ab cells", "result": 58.9, "unit": "%"}, {"measurement": "Increase of brightness of skin (Δ L)", "setting": "human skin [1]", "result": "1.22 ± 0.18"}, {"measurement": "The number of volunteers having reaction, mark +", "setting": "human skin [2]; 24 hours later", "result": 0}, {"measurement": "The number of volunteers having reaction, mark ++", "setting": "human skin [2]; 24 hours later", "result": 0}, {"measurement": "The number of volunteers having reaction, mark +++", "setting": "human skin [2]; 24 hours later", "result": 0}, {"measurement": "The number of volunteers having reaction, mark ±", "setting": "human skin [2]; 24 hours later", "result": 1}, {"measurement": "The number of volunteers having reaction, mark −", "setting": "human skin [2]; 24 hours later", "result": 29}, {"measurement": "The number of volunteers having reaction, mark +", "setting": "human skin [2]; 48 hours later", "result": 0}, {"measurement": "The number of volunteers having reaction, mark ++", "setting": "human skin [2]; 48 hours later", "result": 0}, {"measurement": "The number of volunteers having reaction, mark +++", "setting": "human skin [2]; 48 hours later", "result": 0}, {"measurement": "The number of volunteers having reaction, mark ±", "setting": "human skin [2]; 48 hours later", "result": 0}, {"measurement": "The number of volunteers having reaction, mark −", "setting": "human skin [2]; 48 hours later", "result": 30}, {"measurement": "Average reaction (n = 30)", "setting": "human skin [2]; {(grade × number of volunteers) × 100}/{maximum grade × total volunteers × number of test}, non-irritation standard value 1.0", "result": 0.42}, {"measurement": "Radiation Toxicity Index", "setting": "guinea pig skin; 1% (w/v) solution 50 μl, UVA 15J/cm^2, observed 24, 48 and 72 hours", "result": 0}, {"measurement": "Determination (radiation toxicity)", "setting": "guinea pig skin; 1% (w/v) solution, UVA 15J/cm^2", "result": "Radiation Non-Toxic"}, {"measurement": "Determination (skin irritation)", "setting": "rabbit skin", "result": "No irritation"}, {"measurement": "P.I.I.", "setting": "rabbit skin; measured 24 and 72 hours after application", "result": 0.350}]}]}
